# According to patent publication US11053314B2, “Methods to eliminate cancer stem cells by targeting CD47” (The U.S.A, as represented by the Secretary, Department of …, priority 2014, dated 2021):
# Entries after “also recorded” stand apart in the source; their conditions may differ.
# Columns and labels:
# [1] = tested on: miR let7-family from cellular RNA of MDA-MB-231; assay: Real time PCR of let-7 family miRNAs (Ct values, Table 4); type: cell-based, human
# Procedure: (FIG. 28C & FIG. 28D) The differentiated and bCSCs cells were treated with B6H12 Ab for 24 h. The total miRNA was extracted and let-7 family miRNAs were analyzed using real time PCR. Relative expression of let-7a-2miRNA in differentiated and bCSCs cells was determined using U6 as control. (FIG. 28E) EGFR mRNA expression on EVs derived from MDA-MB-231, bCSCs, T47D1 and MCF7 cells. The cells were treated with control or B6H12 antibody for 6 h using AB serum media. (FIG. 28F) Protein expression of EGFR in the presence or absence of B6H12 for 24 h using FACS sorted CD44^+/CD24-bCSCs from MDA-MB-231, T47D1 and MCF7 cell lines. FIG. 28G) Relative expression of let-7a-2miRNA from EVs. FIG. 28H) Amplification and expression of let-7a-3 miRNA from EV […].
# CSC-depleted MDA-MB-231 and bCSCs were plated at 1×10^6 cells in 6-well plates and were-treated with B6H12 or Isotype control antibody (1 μg/ml) for 36 h. Total RNA was extracted using TriPure (Roche). One μg of total RNA was used for first strand cDNA synthesis using a Maxima kit (2-Step RT PCR, Thermo Scientific) according to the manufacturer's instructions. Real time PCR was performed using SYBR Green (Roche) on an MJ Research Opticon I instrument (Bio-Rad) with the amplification program as described in (Kaur et al., Matrix Biol, 37:49-59, 2014). β2-microglobulin (B2M), HPRT1 or 18S rRNA primers were used as control to normalize mRNA expression (Table 2).
# [2] = tested on: EGFR; assay: EGFR phosphorylation, IP-western blot in MDA-MB-231 cells and bCSCs; type: cell-based, human; details: MDA-MB-231 cells; B6H12 15 min, EGF 5 min
# Procedure: bCSC-depleted MDA-MB-231 cells and bCSCs were plated at 1×10^6 cells in 6-well plates. The cells were serum-starved for 2 hours using serum-free RPMI medium. The cells were pre-treated with B6H12 (1 μg/ml) for 20 min. Cell lysates were made using immunoprecipitation buffer (50 mM Tris-HCl, 150 mM NaCl, and 1% Nonidet P-40) along with 1× Complete Mini-protease inhibitor mixture (Roche Applied Science). Cell lysates were centrifuged at 13,000 rpm for 15 min. A BCA assay (Thermo scientific) was used to quantify total protein. DYNABEADS® magnetic separation beads (Invitrogen) were used for Immunoprecipitation. The DYNABEADS® magnetic separation beads were washed three times with activation buffer. The cell lysates were incubated in DYNABEADS®-protein G along with anti-EGFR and CD47 antibodies (1:500) and incubated for 24 hours at 4° C. on a shaker. The beads were washed three times with lysate buffer and heated at 95° C. for 5 min. The immunoprecipitated cell lysates were loaded on 4-12% NuPAGE gels (Life Technologies), and Western blotting was performed. For immunoprecipitation, primary antibody against phospho-EGFR (1:1000) was used. Normalization of protein lysates used for Western blotting was performed by reprobing with anti-β-actin (1:3000) or tubulin or EGFR antibodies.
# MDA-MB-231 cells were pretreated with B6H12 (1 μg/ml) for 15 min. […]
# [3] = tested on: E-cadherin; assay: E-cadherin mRNA expression (FIG. 23); type: cell-based
# Description: FIG. 23 is a bar graph showing that 7N3 peptide increase mRNA expression of E-cadherin.
# [4] = tested on: bCSCs derived from MDA-MB-231; assay: BrdU cell proliferation assay, bCSCs from MDA-MB-231; type: cell-based, human; details: bCSC from MDA-MB-231
# Procedure: To assess the effect of B6H12 on CSC proliferation, bCSC from MDA-MB-231 cells were treated with B6H12 or an isotype-matched control antibody, and proliferation was assessed by bromodeoxyuridine (BrdU) incorporation (FIG. 20A). […] We addressed this question by using a CRISPR vector (based on pX330-U6-Chimeric_BB-CBh-hSpCas9; Cong et al., Science. 339(6121):819-23, 2013, PMID: 23287718; sequence and other information available online at addgene.org/42230/) designed to specifically disrupt the CD47 gene in MDA-MB-231 cells (FIGS. 22A and 22B), using the following gRNA targeting sequence: 5′ CTACTGAAGTATACGTAAG ngg 3′ (PC200.Hcd47.g3a; SEQ ID NO: 2). PC200.Hcd47.g3a was transfected into bCSCs derived from MDA-MB-231 using a NUCLEOFECTOR™ kit (Lonza, Switzerland). CD47 negative cells were sorted using FACS analysis. CD47^neg bCSCs cells were expanded in culture and cell proliferation was measured using BrdU cell proliferation kit (EMD Millipore).
# Approximately 8,000 cells were plated per well on 96-well plates and incubated overnight at 37° C. The cells were treated with B6H12 or isotype control antibody (1 μg/ml) for 24 h. BrdU was added for 4 or 24 h as indicated in the figures, and BrdU incorporation was quantified using a BrdU Cell Proliferation Kit according to the manufacturer's instructions (EMD Millipore). […]
# [5] = tested on: MDA-MB-231 and bCSCs; assay: Mitochondrial energetics, extracellular flux (Seahorse Analyzer); type: cell-based, human; details: 1 μg/ml
# Procedure: The control MDA-MB-231 and bCSCs were plated using XF24 well plates for 1-4 days. Mitochondrial energetics was measured using extracellular flux assay kits. FIG. 12A) B6H12 (1 μg/ml) alters mitochondrial energetics in bCSCs but not in control MDA-MB-231 cells. FIGS. 12B & 12C) Long term treatment of bCSC with B6H12 (1 μg/ml) leads to decrease in basal oxygen consumption rate (OCR) due to decreased ATP associated OCR and decreases reserve mitochondrial metabolic capacity. […] The cells were immunostained using BrdU antibody and mounted with Vectashield DAPI. The confocal images were taken using a Zeiss 710 microscope at 63×. FIGS. 12E & 12F) Control MDA-MB-231 cells and bCSCs were treated with control or B6H12 Ab at 0.1, 1, 2 and 5 […] for 72 h. The cell proliferation was measured using CellTiter 96® Aqueous Non-Radioactive Cell Proliferation Assay (MTS) according to manufacturers' instructions.
# B6H12 increased the basal oxygen consumption rate (OCR) at day 1 and day 3 but this was lost at day 4, when both the basal and spare metabolic capacity were decreased. The CD47 ligand TSP1 had less effect than the CD47 antibody. B6H12 decreased asymmetric division and proliferation measured by the MTS assay (FIGS. 12D-12F).
# [6] = tested on: several breast cancer cell lines; details: ligation of CD47; cited from earlier work
substance,measurement,setting,value
epidermal growth factor [EGF],Ct value of miR let7-family 7a-2,[1],26.09 ± 0.50
same,Ct value of miR let7-family 7a-3,[1],28.88 ± 0.71
same,Ct value of miR let7-family 7f-2,[1],33.24 ± 0.05
same,Ct value of miR let7-family 7d,[1],27.38 ± 0.18
same,Ct value 18S RNA,[1]; reference RNA,17.65 ± 0.35
same,EGFR phosphorylation at Y1068,[2],significantly increased
FIRVVMYEGKK [7N3],mRNA expression of E-cadherin,[3],increase
PC200.Hcd47.g3a: gRNA targeting sequence CTACTGAAGTATACGTAAG ngg (SEQ ID NO: 2) in CRISPR vector disrupting the CD47 gene (guide CTACTGAAGTATACGTAAGNGG),DNA synthesis (BrdU incorporation),[4],diminished
thrombospondin-1 [TSP1],mitochondrial energetics,[5],modestly changes; also recorded: less effect
same,programmed cell death,[6],induce programmed cell death
